# How the values were obtained:
# K562 = assay: MTT assay, leukemia (K562); type: cell-based, human
# Protocol: (§1) Cells. HTB-9 (bladder), HeLa-S3 (cervix), DU145 (prostate), H460 (lung), MCF-7 (breast), K562 (leukemia), HCT116 (colon), HepG2 (liver), U2OS (bone), T98G (brain), SK-MEL-5 (Skin) and OVCAR 3, ES2 (ovary), Pancreas (Capan), Mouth (KB), Kidney (A498).
# (§2) MTT Assay. The procedure for MTT assay followed the method described by Carmichael et al. (1987) with modifications. The cells were seeded into a 96-well plate at for 24 hours before drug-treatment. The cells were then exposed to the drugs for 48, 72, or 96 hours. After the drug-treatment, MTT (0.5 mg/mL) was added to cultures and incubated for an hour. The formazan (product of the reduction of tetrazolium by viable cells) formed and was dissolved with DMSO and the O.D. at 490 nm, and was measured by an ELISA reader. The MTT level of the cells before drug-treatment was also measured (T0). The % cell-growth (% G) is calculated as: % G=(TD−T0/TC−T0)×100(1), where TC or TD represents O.D. readings of control or drug-treated cells.
# (§3) When T0>TD, then the cytotoxicity (LC) expressed as % of the control is calculated as: % LC=(TD−T0/T0)×100(2).
# [1] = Pharmacokinetic (PK) study: blood from cutting tail; type: in vivo, mice; conditions: IP 100 mg/kg, estimated
# Protocol: Pharmacokinetic (PK) Study: Blood from Cutting Tail • Method: • Drug-Treatment: • Mice: CD-1 female mice (6-7 weeks, 23-25 g) • mice were injected (IP) with Test drug sample (10 mg/ml, in […] at a dose of 100 mg/kg. • Blood was obtained from a mouse by cut-tail at 0.5, 2 and 4 hours after drug treatments. • At 24 hours after the drug treatment, mice were anesthetized with isoflurane and blood was obtained with cardiac puncture. Animals were then euthanized by cervical dislocation. • Plasma Isolation: • Blood (50-100 ul) was centrifuged (2000 g, 15 minutes). Plasma was collected from the top layer. • 1 volume of plasma was mixed with 3 volume of acetonitrile/0.005% TFA. Mixture was stored in refrigerator overnight. • Sample was centrifuged (16000 g,10 minutes). Supernatant (called Plasma in 75% AN/TFA soluble fractions) was collected and subjected to HPLC analysis. • HPLC Analysis Conditions: • Column: C18 μBondapak • Solvent: 60% acetonitrile/0.005% TFA (Trifluoroacetic acid) • Gradient: isocratic • Flow rate and run time: 1 ml/min for 30 minutes • Detection wavelength: 207 nm • O.D. range: 0.05 full scale • Calculation: • Standard cures of Test Drug is constructed (Area/3000K=1 ug Test Drug) • Area of Test Drug Peak from Sample is Recorded • Amount of Test Drug was calculated according to standard cures.
# HeLa = assay: MTT assay, cervix (HeLa); type: cell-based
# Protocol: as §1, §2, §3
# K562 cells = assay: Apoptosis in K562 cells (Annexin V / propidium iodide); type: cell-based, human
# Protocol: Experiment 34: Apoptosis in K562 Cells Induced by Tig-S • 1. Cells: Human leukemia cells K562 cultured in RPMI1640 medium. • 2. Drug: Tig-S (1000× stock solution in DMSO). • 3. Start cells concentration: 500000/ml. • 4. Cells were cultured with drug (0-20 ug/ml) for Two days. • 5. Collect cells from culture (1-4 million) by centrifugation (136×g for 5 min. remove supernatant). • 6. Wash cells with 1 ml of cold PBS, collect cells by centrifugation (136×g, 5 min, remove supernatant). • 7. Re-suspend cells in 200 ul Binding buffer (10 mM HEPES, 140 mM NaCl, 2.5 mM CaCl2, pH 7.4). • 8. Stained cells by adding 10 ul Annexin V (Alexa Fluor 488, Invitrogen cat #A13201), and 2 ul Propidium iodide (1 mg/ml in water) to cell suspension. Mix. • 9. Sit at Room temperature for 15 min. • 10. Wash cells with 1 ml binding buffer. Collect cells by centrifugation. • 11. Re-suspend cells with in 1 ml of binding buffer for analysis by flow cytometry. • 12. Flow Cytometry analysis was performed in Baylor Core Facility with a LSRII instrument. • 13. Analysis: Control cells stained with PI or Annexin V-488 (Annexin V-FITC) alone were served as references. About 50000 cells were analyzed for each sample. • 14. Cell distribution in following groups: live, early apoptosis, late-apoptosis, total apoptosis and dead cells were determined. • 15.
IC50 of leukemia (K562) (K562),half-life [1],IC50 of cervix (HeLa) (HeLa),SMILES,mechanism of cell-death (K562 cells)
2 µg/mL,about one,5 µg/mL,"CC=C(C)C(=O)OCC1(C)C(O)CCC2(C)C1CCC1(C)C2CC=C2C3CC(C)(C)C(O)C(O)C3(COC(=O)C(C)=CC)C(O)CC21C (stereo not drawn) [Tig-R, 24,28-O-Tigloyl-3β,16α,21β,22α,24β,28-hexahydroxyolean-12-ene]",
,,,CC=C(C)C(=O)OCC1(C)C(O)CCC2(C)C1CCC1(C)C2CC=C2C3CC(C)(C)C(OC(=O)C(C)=CC)C(O)C3(CO)C(O)CC21C (stereo not shown) [Tig-S],induces cell-death by the apoptosis mechanism

# Reference: patent US20230159436A1, “APPLICATIONS OF AMIDE ANALOGS OF TRITERPENES IN CURES OF CANCER AND OTHER DISEASES” (Pacific Arrow Limited, priority 2021, published 2023)
